Patent US20220017541A1, “INHIBITORS OF ARGINASE” (Black Belt Tx Ltd, priority 2018, published 2022)

Target: T1, arginase activity in intact BMM-M2 cells (Mus musculus, UniProt Q61176)
T1 construct: endogenous in cells; host or cells: bone-marrow derived macrophages from male C57BL/6 mice, polarised to M2 with IL-4
T1 sequence (Q61176 1-323): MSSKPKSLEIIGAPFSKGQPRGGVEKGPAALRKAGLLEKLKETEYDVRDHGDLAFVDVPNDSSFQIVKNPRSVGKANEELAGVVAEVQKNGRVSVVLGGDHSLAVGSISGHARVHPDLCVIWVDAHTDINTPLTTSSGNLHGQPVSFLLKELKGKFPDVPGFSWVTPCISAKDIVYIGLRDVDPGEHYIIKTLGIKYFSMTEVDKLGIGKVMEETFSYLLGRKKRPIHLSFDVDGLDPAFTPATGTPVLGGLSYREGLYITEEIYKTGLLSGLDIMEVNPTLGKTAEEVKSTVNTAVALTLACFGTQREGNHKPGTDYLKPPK
Experiment: Cell-based arginase assay: urea production by cultured BMM-M2 cells
Conditions: 10 μM test compound, 24 h
Description: Murine bone-marrow derived macrophages (BMM) represent a convenient in vitro model that enables differentiation of these cells towards M1 or M2 macrophages. Briefly, male C57BL/6 mice 7-8 weeks old were euthanized by carbon dioxide asphyxiation. Femur and tibiae bones were removed under aseptic conditions and collected in a plate containing sterile ice-cold PBS 1×. After sterilization of bones in 70% ethanol during 1 min, bones were placed into a clean Petri dish containing fresh sterile ice-cold PBS 1×. The ends of each bone were cut and the marrow cavity was flushed using forceps and syringes filled with pre-warmed complete α-MEM growing medium (α-MEM without red phenol (Life Technologies, Cat. No. #41061-029) supplemented with 10% FBS, penicillin and streptomycin). Bone marrow (BM) cells were harvested in a 15 ml clean tube and centrifuged at 400 g for 8 min at RT. Supernatant was discarded and BM pellet was re-suspended in 5 ml Ammonium-Chloride-Potassium (ACK) buffer for 5 minutes at RT to lysis RBC. BM cell suspension was centrifuged at 400 g for 8 min at RT. Supernatant was discarded and BM cell pellet was re-suspended in complete α-MEM growing medium and passed through a 70 μm cell restrainer to eliminate solid contaminates and cellular aggregates. BM cells were seeded in 8 ml of complete α-MEM growing medium supplemented with 100 ng/ml recombinant mouse M-CSF (R&D Systems, Cat. No. #416-ML-050) in 100-mm dishes. BM cells were cultured overnight to get rid of contaminating stromal cells in a humidified incubator with 5% CO2 at 37° C. At the following day, non-adherent cells were collected in a clean 15-ml tube and centrifuged at 400 g for 8 min at RT. Cell pellet was re-suspended in complete α-MEM growing medium and counted using a hemocytometer Neubauer's chamber. Hematopoietic precursor cells were differentiated into BMM in presence of complete α-MEM growing medium supplemented 50 ng/ml M-CSF for 3 days. Finally to polarize BMM towards M2 phenotype, cells were incubated in presence 20 ng/ml of recombinant mouse IL-4 (R&D Systems, Cat. No. #404-ML-010) added to fresh complete α-MEM growing medium supplemented 50 ng/ml M-CSF for 24 h.
At the day of the experiment, BMM-M2 were treated for 24 h with vehicle (DMSO) or compounds of the invention at 1 and 10 μM prepared in fresh complete α-MEM growing medium supplemented 50 ng/ml M-CSF, 20 ng/ml IL-4 and 10 mM L-arginine (Cat. No. #A5006, Sigma Aldrich). At the next day, 70 μl aliquots of each treated culture media (supernatants) were transferred into a clear 96-well plate. Measurements of urea produced by BMM-M2 were performed using the adapted protocol detailed in Example B1. Wells without BMM-M2 containing only treatment media (vehicle) were used to determine the zero cell-derived urea production (blank). All treatments were carried out in triplicates.
The inhibition of urea production was calculated subtracting the absorbance from the blank to the absorbance from all treatments and it was expressed as the percentage of the absorbance from the reaction containing the test article treatment with respect to the absorbance from vehicle treatment (maximum of urea production).

| Structure (SMILES) | Inh. urea production @10 μM (%) |
| --- | --- |
| CC(c1ccccc1)N1CCC(C(N)(CCCCB(O)O)C(=O)O)CC1 (stereo not shown) [Compound 9, 2-amino-6-borono-2-(1-(1-phenylethyl)piperidin-4-yl)hexanoic acid] | ++ (25% < % inhibition < 15% at 10 μM test compound) |
| CC1(C)OB(CCCCC(N)(C(=O)O)C2CCN(C3CCCc4ccccc43)CC2)OC1(C)C (stereo not shown) [Compound 77, 2-amino-2-(1-(1,2,3,4-tetrahydronaphthalen-1-yl)piperidin-4-yl)-6-(4,4,5,5-tetramethyl-1,3,2-dioxaborolan-2-yl)hexanoic acid] | ++ (25% < % inhibition < 15% at 10 μM test compound) |

Same assay, conditions: 10 μM test compound, 24 h, 10 µM

| Inh. urea production @10 μM (%) | Structure (SMILES) |
| --- | --- |
| + (% inhibition < 15 at 10 μM) | NC(CCCCB(O)O)(C(=O)O)C1CCN(C2CCCc3ccccc32)CC1 (single isomer, unassigned) [Compound 6, 2-amino-6-borono-2-(1-(1,2,3,4-tetrahydronaphthalen-1-yl)piperidin-4-yl)hexanoic acid] |
| + (% inhibition < 15 at 10 μM) | CC(c1ccccc1)N1CCC(C(N)(CCCCB(O)O)C(=O)O)CC1 (single isomer, unassigned) [Compound 11, 2-amino-6-borono-2-(1-(1-phenylethyl)piperidin-4-yl)hexanoic acid] |

| Structure (SMILES) | Inh. urea production @10 μM (%) |
| --- | --- |
| NC(CCCCB(O)O)(C(=O)O)C1CCN(C2CCc3ccccc32)CC1 (single isomer, unassigned) [Compound 2, 2-amino-6-borono-2-(1-(2,3-dihydro-1H-inden-1-yl)piperidin-4-yl)hexanoic acid] | +++ (% inhibition > 25 at 10 μM test compound) |

Same assay, conditions: 10 μM test compound, 24 h, read-out: Inh. urea production @10 μM (%)

| inhibition at 10 µM [%] | Structure (SMILES) |
| --- | --- |
| > 25 | CC(c1ccccc1)N1CCC(C(N)(CCCCB(O)O)C(=O)O)CC1 (single isomer, unassigned) [Compound 10, 2-amino-6-borono-2-(1-(1-phenylethyl)piperidin-4-yl)hexanoic acid] |
| > 25 | NC(CCCCB(O)O)(C(=O)O)C1CCN(C2CCCc3ccccc32)CC1 (single isomer, unassigned) [Compound 5, 2-amino-6-borono-2-(1-(1,2,3,4-tetrahydronaphthalen-1-yl)piperidin-4-yl)hexanoic acid] |
| > 25 | NC(CCCCB(O)O)(C(=O)O)C1CCN(C2CCCCc3ccccc32)CC1 (single isomer, unassigned) [Compound 84, 2-amino-6-borono-2-(1-(6,7,8,9-tetrahydro-5H-benzo[7]annulen-5-yl)piperidin-4-yl)hexanoic acid] |
| > 25 | NC(CCCCB(O)O)(C(=O)O)C1CCN(C2CCc3cc(Cl)ccc32)CC1 (single isomer, unassigned) [Compound 14, 2-amino-6-borono-2-[1-(5-chloroindan-1-yl)-4-piperidyl]hexanoic acid] |
| > 25 | NC(CCCCB(O)O)(C(=O)O)C1CCN(C2CCc3ccccc32)CC1 (stereo not shown) [Compound 1, 2-amino-6-borono-2-(1-(2,3-dihydro-1H-inden-1-yl)piperidin-4-yl)hexanoic acid] |
| < 15 | NC(CCCCB(O)O)(C(=O)O)C1CCN(C2CCc3ccccc32)CC1 (single isomer, unassigned) [Compound 3, 2-amino-6-borono-2-(1-(2,3-dihydro-1H-inden-1-yl)piperidin-4-yl)hexanoic acid] |
| > 25 | NC(CCCCB(O)O)(C(=O)O)C1CCN(C2CCCc3ccc(F)cc32)CC1 (single isomer, unassigned) [Compound 83, 2-amino-6-borono-2-(1-(7-fluoro-1,2,3,4-tetrahydronaphthalen-1-yl)piperidin-4-yl)hexanoic acid] |
| > 25 | NC(CCCCB(O)O)(C(=O)O)C1CCN(C2CCCc3ccccc32)CC1 (single isomer, unassigned) [Compound 4, 2-amino-6-borono-2-(1-(1,2,3,4-tetrahydronaphthalen-1-yl)piperidin-4-yl)hexanoic acid] |
| > 25 | NC(CCCCB(O)O)(C(=O)O)C1CCN(C2CCCc3cc(Cl)ccc32)CC1 (single isomer, unassigned) [Compound 17, 2-amino-6-borono-2-(1-(6-chloro-1,2,3,4-tetrahydronaphthalen-1-yl)piperidin-4-yl)hexanoic acid] |
| > 25 | NC(CCCCB(O)O)(C(=O)O)C1CCN(C2CCc3cc(C(F)(F)F)ccc32)CC1 (single isomer, unassigned) [Compound 85, 2-amino-6-borono-2-[1-[5-(trifluoromethyl)indan-1-yl]-4-piperidyl]hexanoic acid] |
| > 25 | CNC(CCCCB(O)O)(C(=O)O)C1CCN(C2CCCc3ccccc32)CC1 (single isomer, unassigned) [Compound 79, 6-borono-2-(methylamino)-2-(1-(1,2,3,4-tetrahydronaphthalen-1-yl)piperidin-4-yl)hexanoic acid] |
